Test results taken from paper PMC5626944 (Frontiers in Pharmacology, 2017).
Where two headings read alike, the source gives them in different places.

Assays:
[1] = test system: Calcium Channel, Type N; experiment: NovaScreen competition binding; settings: 1 µM
[2] = test system: T1, Adenosine, A2A (h); experiment: NovaScreen competition binding; set-up: species or system human; settings: 1 µM
T1 construct: PerkinElmer – Caliper Life Sciences (NovaScreen service)

[3] = target: T2, α4β2 (α5KO) nAChRs (Mus musculus, UniProt O70174+Q9ERK7); experiment: 86Rb+ efflux from α5KO thalamic and cortical synaptosomes; format: biochemical
T2 construct: from tissue; host or cells: thalamic and cortical synaptosomes of α5KO mice
Procedure: (§1) Regions of interest were dissected from fresh mouse brains and homogenized in ice-cold isotonic sucrose (0.32 M), buffered with HEPES (5 mM, pH 7.5). The suspension was centrifuged at 12,000 × g for 20 min.

[4] = test system: T3, Adrenergic, Alpha 1A; experiment: NovaScreen competition binding; settings: 1 µM
T3 construct: PerkinElmer – Caliper Life Sciences (NovaScreen service)

[5] = test system: WT mice; experiment: Marble burying assay; format: in vivo, mouse; settings: 0.3 mg/kg ip
[6] = test system: Adrenergic, Alpha 2B; experiment: NovaScreen competition binding; settings: 1 µM
[7] = test system: Glutamate, NMDA Agonist Site (Ionotropic); experiment: NovaScreen competition binding; settings: 1 µM
[8] = test system: T4, Kinase, Protein, PKCa (h); experiment: NovaScreen enzyme assay; format: biochemical, human; settings: 1 µM
T4 construct: PerkinElmer – Caliper Life Sciences (NovaScreen service)

[9] = test system: T5, Phosphodiesterase, PDE5A1 (h); experiment: NovaScreen enzyme assay; format: biochemical, human; settings: 1 µM
T5 construct: PerkinElmer – Caliper Life Sciences (NovaScreen service)

[10] = test system: Nitric Oxide, NOS (Neuronal-Binding); experiment: NovaScreen competition binding; settings: 1 µM
[11] = test system: T6, GABA-B; experiment: NovaScreen competition binding; settings: 1 µM
T6 construct: PerkinElmer – Caliper Life Sciences (NovaScreen)

[12] = test system: Sodium, Site 2; experiment: NovaScreen competition binding; settings: 1 µM
[13] = test system: Serotonin Transporter; experiment: NovaScreen competition binding; settings: 1 µM
[14] = test system: Potassium Channel, Ca2+ Act., VI; experiment: NovaScreen competition binding; settings: 1 µM
[15] = test system: Muscarinic, M5 (h); experiment: NovaScreen competition binding; set-up: species or system human; settings: 1 µM
[16] = test system: Muscarinic, M1 (hr); experiment: NovaScreen competition binding; set-up: species or system human; settings: 1 µM
[17] = test system: Norepinephrine Transporter; experiment: NovaScreen competition binding; settings: 1 µM
[18] = test system: Human FMO3; experiment: Turnover by human flavin-containing monooxygenase 3; format: in vitro ADME; settings: 100 pmol/mL enzyme, 37 °C
Procedure: S2 Table. In vitro metabolism of TC299423, compared w ith varenicline.
Human Rat microsomes Turnover by human cytochrome P450 isoforms […]
The assay mixtures (final incubation volume of 125 μL) in 0.255 M phosphate buffer with 0.575% (w/v) KCl (pH 7.4) contained PiB (1.0 μM), […] a recombinantly expressed cytochrome P450 enzyme preparation (1A2, 2C9, 2C19, 2D6, 3A4, and FMO3) at 100 pmol/mL. After a 10 min preincubation at 37 °C, the reaction was initiated by addition of 2.0 mM NADPH and incubated for 60 min. The reactions were terminated by the addition of two volumes of DMSO. Samples were subsequently centrifuged at 4,000 rpm for 10 min. From the resulting supernatant, 10 μ L was analyzed by liquid chromatography/tandem mass spectrometry (LC-MS/MS). Control experiments were performed by substituting the active enzyme preparation by cell preparations containing no recombinant human CYP. a, Data for clearance are given as μL /min/mg protein. […]
c, Data for cytochrome P450 turnover and for human flavin- containing monooxygenase 3 (FMO3) are given as percent decline over 60 min.

[19] = test system: T7, Histamine, H1; experiment: NovaScreen competition binding; settings: 1 µM
T7 construct: PerkinElmer – Caliper Life Sciences (NovaScreen)

[20] = test system: Serotonin, 5HT2A; experiment: NovaScreen competition binding; settings: 1 µM
[21] = test system: Opioid, Delta 2 (h); experiment: NovaScreen competition binding; set-up: species or system human; settings: 1 µM
[22] = target: α6β2* nAChRs (Mus musculus, UniProt Q9ERK7+Q9R0W9); experiment: biochemical; format: biochemical; settings: for EC50: read-out: Neurotransmitter release EC50 (converted); for Emax: relative to nicotine
Procedure: as §1, with “min. The pellet was re-suspended in the appropriate uptake buffer ([Grady et al., 2001]; [Salminen et al., 2004]; [Marks et al., 2006]) and used immediately.” for “min.”
Superfusion was carried out at 22°C using a buffer containing: NaCl, 128 mM; KCl, 2.4 mM; CaCl2, 3.2 mM; MgSO4, 1.2 mM; KH2PO4, 1.2 mM; HEPES, 25 mM; glucose, 10 mM; ascorbic acid, 1 mM; pargyline, 0.01 mM; 0.1% BSA; nomifensine, 1 μM (to prevent the re-uptake of dopamine); atropine, 1 μM (to prevent muscarinic receptor activation); pH 7.5. Superfusion proceeded at 0.7 mL/min for 10 min before stimulation with agonist for 20 s. Selected aliquots were perfused with α-CtxMII (50 nM) for 3 min immediately before stimulation. This concentration of α-CtxMII was sufficient to inhibit α6β2^∗-nAChRs in the mouse striatum ([Salminen et al., 2004], [2007]). Fractions (∼0.1 mL) were collected into 96-well plates at 10 s intervals for 4 min (starting ∼1 min before stimulation). After adding 0.15 mL of Optiphase SuperMix scintillation cocktail, radioactivity was measured using a 1450 MicroBeta TriLux counter (Perkin Elmer Life Sciences).

T2 sequence (O70174 31-629): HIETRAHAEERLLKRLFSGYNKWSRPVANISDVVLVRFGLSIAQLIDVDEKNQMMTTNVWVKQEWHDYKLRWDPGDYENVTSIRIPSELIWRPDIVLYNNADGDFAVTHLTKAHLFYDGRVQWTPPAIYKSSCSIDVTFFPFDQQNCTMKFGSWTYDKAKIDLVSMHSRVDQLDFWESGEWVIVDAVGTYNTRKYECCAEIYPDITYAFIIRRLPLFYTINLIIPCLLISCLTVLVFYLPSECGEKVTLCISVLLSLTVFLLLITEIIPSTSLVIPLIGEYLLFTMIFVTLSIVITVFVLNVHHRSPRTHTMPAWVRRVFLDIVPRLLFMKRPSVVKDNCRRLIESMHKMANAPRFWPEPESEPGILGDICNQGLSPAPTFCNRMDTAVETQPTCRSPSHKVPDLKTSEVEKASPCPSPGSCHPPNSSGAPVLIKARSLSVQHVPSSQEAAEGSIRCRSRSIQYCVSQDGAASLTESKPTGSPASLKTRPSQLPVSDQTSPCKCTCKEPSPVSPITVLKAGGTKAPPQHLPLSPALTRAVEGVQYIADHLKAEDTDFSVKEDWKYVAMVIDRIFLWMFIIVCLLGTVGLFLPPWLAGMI
T2 sequence (Q9ERK7 26-501): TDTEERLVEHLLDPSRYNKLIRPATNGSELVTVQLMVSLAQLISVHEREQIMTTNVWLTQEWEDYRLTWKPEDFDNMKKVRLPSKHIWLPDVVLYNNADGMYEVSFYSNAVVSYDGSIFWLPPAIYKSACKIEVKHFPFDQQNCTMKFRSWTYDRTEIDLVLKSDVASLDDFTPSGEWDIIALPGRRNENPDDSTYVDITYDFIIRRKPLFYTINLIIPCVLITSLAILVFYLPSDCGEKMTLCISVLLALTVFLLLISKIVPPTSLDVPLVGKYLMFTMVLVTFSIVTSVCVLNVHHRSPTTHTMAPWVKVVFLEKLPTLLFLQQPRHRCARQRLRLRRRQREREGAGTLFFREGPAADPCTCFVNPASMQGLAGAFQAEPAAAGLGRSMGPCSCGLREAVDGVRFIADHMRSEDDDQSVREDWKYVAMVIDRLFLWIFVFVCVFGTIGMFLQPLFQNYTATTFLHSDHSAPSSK
α6β2* nAChRs, sequence (Q9R0W9 31-494): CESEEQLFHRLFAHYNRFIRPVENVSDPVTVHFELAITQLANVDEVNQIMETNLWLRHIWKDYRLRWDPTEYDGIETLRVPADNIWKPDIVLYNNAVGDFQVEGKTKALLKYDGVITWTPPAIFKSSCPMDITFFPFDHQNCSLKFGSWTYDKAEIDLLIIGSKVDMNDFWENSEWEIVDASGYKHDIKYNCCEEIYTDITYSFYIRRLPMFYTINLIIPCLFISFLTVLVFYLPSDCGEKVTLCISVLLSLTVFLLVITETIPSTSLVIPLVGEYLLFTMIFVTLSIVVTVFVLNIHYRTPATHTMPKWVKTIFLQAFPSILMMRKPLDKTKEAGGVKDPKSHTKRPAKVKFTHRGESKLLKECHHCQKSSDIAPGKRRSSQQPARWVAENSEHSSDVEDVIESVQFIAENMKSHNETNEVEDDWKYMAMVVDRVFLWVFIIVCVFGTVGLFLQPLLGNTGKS
α6β2* nAChRs, sequence (Q9ERK7 26-501): as the sequence (Q9ERK7 26-501) above
α6β2* nAChRs, sequence (Q8BMN3 31-464 partner): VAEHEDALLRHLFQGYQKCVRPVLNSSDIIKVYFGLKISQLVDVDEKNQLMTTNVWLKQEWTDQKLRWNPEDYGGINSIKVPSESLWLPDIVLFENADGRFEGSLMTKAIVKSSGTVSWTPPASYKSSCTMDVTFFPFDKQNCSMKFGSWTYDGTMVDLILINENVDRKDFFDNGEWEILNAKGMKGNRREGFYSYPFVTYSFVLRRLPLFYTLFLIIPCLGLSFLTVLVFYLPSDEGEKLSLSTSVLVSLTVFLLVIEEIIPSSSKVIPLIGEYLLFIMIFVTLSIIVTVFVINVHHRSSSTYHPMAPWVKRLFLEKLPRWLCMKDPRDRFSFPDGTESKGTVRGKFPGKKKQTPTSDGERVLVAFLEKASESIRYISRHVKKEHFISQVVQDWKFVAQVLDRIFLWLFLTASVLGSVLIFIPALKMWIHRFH

With C1=C(/c2cncnc2)CCCNCC/1 [TC299423, (E)-5-(pyrimidin-5-yl)-1,2,3,4,7,8-hexahydroazocine] the Hit [1] was “FALSE”, the Inhibition ([1]; [125I]-Conotoxin GVIA) was -0.60% and the Hit [2] was “FALSE”. The Inhibition ([2]; [3H]CGS 21680) was 1.51%, the “86Rb+ efflux Efficacy” value ([3]; Cortex) was 169 ± 20% and the EC50 ([3]; Cortex) was 2400 ± 700 nM. For the same molecule, the “86Rb+ efflux Efficacy” value ([3]; Thalamus) was 166 ± 32%, the EC50 ([3]; Thalamus) was 1600 ± 500 nM and the Hit [4] was “FALSE”. For the same molecule, the Inhibition ([4]; [3H]-7-MeOxy-Prazosin) was -0.05%, the “Marbles buried compared with saline” value [5] was “significantly fewer marbles” and the “Marbles buried compared with varenicline” value ([5]; p < 0.001) was “fewer marbles”. The Hit [6] was “FALSE”, the Inhibition ([6]; [3H]MK-912) was -14.09% and the Hit [7] was “FALSE”. The Inhibition ([7]; [3H]CGP 39653) was 5.51%, the Hit [8] was “FALSE” and the Inhibition ([8]; substrate Fluorescein-labeled peptide) was -1.00%. The Hit [9] was “FALSE”, the Inhibition ([9]; substrate Fluorescent cyclic GMP) was -3.00% and the Hit [10] was “FALSE”. The Inhibition ([10]; [3H]NOARG) was -10.86%, the Hit [11] was “FALSE” and the Inhibition ([11]; [3H]CGP 54626A) was -2.43%. For the same molecule, the Hit [12] was “FALSE”, the Inhibition ([12]; [3H]Batrachotoxin A 20-a-Benzo) was 6.91% and the Hit [13] was “FALSE”. For the same molecule, the Inhibition ([13]; [3H]Citalopram, N-Methyl) was 7.03%, the Hit [14] was “FALSE” and the Inhibition ([14]; [125I]Apamin) was -2.57%. For the same molecule, the Hit [15] was “FALSE”, the Inhibition ([15]; [3H]Scopolamine, N-Methyl) was 2.24% and the Hit [16] was “FALSE”. The Inhibition ([16]; [3H]Scopolamine, N-Methyl) was -11.73%, the Hit [17] was “FALSE” and the Inhibition ([17]; [3H]Nisoxetine) was 23.72%. For the same molecule, the “Turnover by Human FMO3” value [18] was 17 percent decline over 60 min, the Hit [19] was “FALSE” and the Inhibition ([19]; [3H]Pyrilamine) was 15.56%. For the same molecule, the Hit [20] was “FALSE”, the Inhibition ([20]; [3H]Ketanserin) was 12.43% and the Hit [21] was “FALSE”. The Inhibition ([21]; [3H]-Naltrindole) was -2.12%, the EC50 ([22]; WT striatal synaptosomes) was 30 ± 0.006 nM and the “Maximal response, α-CtxMII-sensitive [3H]-dopamine release” value ([22]; calculated from Michaelis–Menten curve fit) was 0.93 ± 0.08 units. The Emax ([22]; read-out: Neurotransmitter release % Efficacy, WT striatal synaptosomes) was 50 ± 20%, the Emax ([22]; read-out: Neurotransmitter release % Efficacy, α5KO striatal synaptosomes) was 54 ± 14% and the EC50 ([22]; α5KO striatal synaptosomes) was 50 nM.
